From patent EP0728482A2, “Use of hcp specific compounds to enhance erythropoiesis” (SMITHKLINE BEECHAM CORPORATION, priority 1995, dated 1996)

Biological target: T1, human lck SH2 domain (Homo sapiens, UniProt P06239)
T1 construct: made in house; host or cells: E. coli AR120
Assay: ELISA-based SH2 domain / pY peptide binding assay, lck SH2 domain
Settings: inhibition of binding of 0.1 uM biotinylated pY peptide to SH2 domain fusion protein
Experimental: The inhibitory activity of compounds at the different human SH2 domains was determined in vitro using SH2 domains expressed as fusion proteins in E. coli. The SH2 domains used herein were the human forms of the src SH2 domain, Grb2 SH2 domain, lck SH2 domain, fyn SH2 domain, SH-PTP2 SH2 domain, p85 SH2 domain and hcp SH2 domain.
The fusion proteins containing the src, lck and hcp SH2 domains were expressed as the general sequence: DET1-DET2-spacer-ek-SH2, where DET1, DET2, spacer, ek and SH2 are as described below. DET1 ("defined epitope tag 1") (SEQ ID NO: 1) is an 11 amino acid sequence found in the Human Immunodeficiency Virus Type 1 (HIV-1) envelope protein gp120 (or gp160). Monoclonal antibodies to various epitopes of HIV-1 gp120 (or gp 160) are known in the art, see, for example U.S. Patent 5,166,050. One preferred example is monoclonal antibody 178.1 (see, e.g., Thiriart et al., J. Immunol., 143:1832-1836 (1989)), which was prepared by immunization of mice with a yeast-expressed HIV-1 gp160 molecule from strain BH10 (Ratner et al., Nature, 313:277-284 (1985)). This tag was used for detection of expression (by Western blot), for purification of the protein (by affinity chromatography), and for configuring assays in which the fusion protein was captured or immobilized using the 178.1 antibody. […]

T1 sequence (P06239 127-224 limits assumed): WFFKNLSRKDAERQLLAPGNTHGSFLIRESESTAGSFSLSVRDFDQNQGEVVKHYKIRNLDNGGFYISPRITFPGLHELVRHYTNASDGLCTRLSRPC

With CCCCCCNC(=O)[C@H]1CC[C@H](CNC(=O)c2ccc(C(=O)c3ccc(C(=O)O)cc3)cc2)CC1 [Compound 6, 4-carboxy-benzophenone-4-carboxamido-trans-4-methyl-cyclohexyl-N-hexyl carboxamide] the IC50 was > 300 µM.
